Source: ChEMBL document CHEMBL5329222, “Discovery of novel tubulin CBSI (R)-9k from the indanone scaffold for the treatment of colorectal cancer” (RSC Med Chem, 2023)

Columns and labels:
HeLa = test: Growth inhibition of human HeLa cells incubated for 1.5 hrs by MTT assay; assay type: functional, cell-based
A2780 = test: Growth inhibition of human A2780 cells incubated for 1.5 hrs by MTT assay; assay type: functional, cell-based; conditions: A2780, 1.5 h
CT26 = test: Growth inhibition of CT26 cells incubated for 1.5 hrs by MTT assay; assay type: functional, cell-based; conditions: Mus musculus, CT26, 1.5 h
Tubulin (Bos taurus) = Tubulin (Bos taurus) (UniProt Q6B856+Q862L2+Q862F3); test: Inhibition of bovine brain tubulin polymerization at 3 uM measured at 2 to 20 mins by spectrophotometer analysis relative to control; conditions: time 2-20 min
HCT-116 [1] = test: Induction of cell cycle arrest in human HCT-116 cells assessed as accumulation of cells at G2/M phase at 6 uM incubated for 24 hrs by flow cytometry analysis (reference value: 18.25%); assay type: functional
HCT-116 [2] = test: Induction of cell cycle arrest in human HCT-116 cells assessed as accumulation of cells at G2 phase at 3 uM incubated for 24 hrs by flow cytometry analysis (reference value: 18.25%); assay type: functional
HCT-116 [3] = test: Induction of cell cycle arrest in human HCT-116 cells assessed as accumulation of cells at S phase at 3 uM incubated for 24 hrs by flow cytometry analysis (reference value: 3.61%); assay type: functional
HCT-116 [4] = test: Induction of apoptosis in human HCT-116 cells assessed as viable cells at 1.5 uM incubated for 24 hrs by annexin V-FITC/7-AAD staining based flow cytometry analysis (reference value: 90.19%); assay type: functional; conditions: read-out: Activity
HCT-116 [5] = test: Induction of apoptosis in human HCT-116 cells assessed as viable cells at 6 uM incubated for 24 hrs by annexin V-FITC/7-AAD staining based flow cytometry analysis (reference value: 90.19%); assay type: functional; conditions: read-out: Activity
HCT-116 [6] = test: Induction of apoptosis in human HCT-116 cells assessed as late apoptotic cells at 3 uM incubated for 24 hrs by annexin V-FITC/7-AAD staining based flow cytometry analysis (reference value: 1.53%); assay type: functional
HCT-116 [7] = test: Induction of apoptosis in human HCT-116 cells assessed as necrotic cells at 1.5 uM incubated for 24 hrs by annexin V-FITC/7-AAD staining based flow cytometry analysis (reference value: 2.46%); assay type: functional
HCT-116 [8] = test: Induction of apoptosis in human HCT-116 cells assessed as necrotic cells at 3 uM incubated for 24 hrs by annexin V-FITC/7-AAD staining based flow cytometry analysis (reference value: 2.46%); assay type: functional
HCT-116 [9] = test: Inhibition of colony formation in human HCT-116 cells incubated for 48 hrs by crystal violet staining based analysis; assay type: functional, cell-based; conditions: dose 0.1-2 µM
HCT-116 [10] = test: Inhibition of colony formation in human HCT-116 cells at 0.5 uM incubated for 48 hrs by crystal violet staining based analysis; assay type: functional; conditions: HCT-116, 48 h, values are per cent of control
HCT-116 [11] = test: Inhibition of colony formation in human HCT-116 cells at 1 uM incubated for 48 hrs by crystal violet staining based analysis; assay type: functional; conditions: HCT-116, 48 h, values are per cent of control
HCT-116 [12] = test: Inhibition of cell migration in human HCT-116 cells at 1 uM measured for 24 hrs by scratch wound healing assay; assay type: functional
HCT-116 [13] = test: Inhibition of cell migration in human HCT-116 cells measured for 24 hrs by scratch wound healing assay; assay type: functional, cell-based; conditions: dose 0.5-5 µM

IC50 (HeLa): 380 nM | IC50 (A2780): 590 nM | IC50 (CT26): 4110 nM | inhibition (Tubulin (Bos taurus)): 30%
SMILES: CCOc1ccc([C@H]2CC(=O)c3cc(OC)c(OC)c(OC)c32)cc1F
Activity (HCT-116 [1]): 47.34% | Activity (HCT-116 [2]): 28.73% | Activity (HCT-116 [3]): 6.6% | viability at 1.5 µM (HCT-116 [4]): 86.7% | viability at 6 µM (HCT-116 [5]): 60.5% | Activity (HCT-116 [6]): 5.07% | Activity (HCT-116 [7]): 2.28% | Activity (HCT-116 [8]): 3.2% | inhibition (HCT-116 [9]): Dose-Dependent Effect | growth, % of control at 0.5 µM (HCT-116 [10]): 30.8% | growth, % of control at 1 µM (HCT-116 [11]): 1.3% | inhibition at 1 µM (HCT-116 [12]): 43% | inhibition (HCT-116 [13]): Dose-Dependent Effect
